Counter-ions that a name gives are not always drawn.
Columns and labels:
MDA-MB-231 = assay: Antiproliferative activity against human MDA-MB-231 cells after 48 hrs by MTT assay; format: functional, cell-based; conditions: MDA-MB-231, 48 h
MCF7 = assay: Antiproliferative activity against human MCF7 cells after 48 hrs by MTT assay; format: functional, cell-based; conditions: MCF7, 48 h
[1] = Antiproliferative activity against human MEpiC cells after 48 hrs by MTT assay; format: cell-based

| SMILES | IC50 (MDA-MB-231) [µM] | IC50 (MCF7) [µM] | IC50 [1] [µM] |
| --- | --- | --- | --- |
| COc1ccc(OC(=O)C#Cc2ccccc2)cc1 | 6.66 | 52.6 | 19.1 |
| O=C1C=CC2(C=C1)OC(=O)C(I)=C2c1ccccc1 | 7.51 | 41.5 | 6.33 |
| O=C1C=CC2(C=C1)OC(=O)C(c1ccc([N+](=O)[O-])cc1)=C2c1ccccc1 | 19 | 5.99 | 66.5 |
| O=C1C=CC2(C=C1)OC(=O)C(c1ccc(CO)cc1)=C2c1ccccc1 | 8.85 | 5.76 | 3.86 |
| N#Cc1ccc(C2=C(c3ccccc3)C3(C=CC(=O)C=C3)OC2=O)cc1 | 8.74 | 19 | 8.89 |
| O=C1C=CC2(C=C1)OC(=O)C(c1ccc(C(=O)O)cc1)=C2c1ccccc1 | 15.2 | 5.95 | 10.4 |
| O=C1C=CC2(C=C1)OC(=O)C=C2c1ccccc1 | 15.9 | 6.46 | 7.67 |
| COc1cccc2c1C(=O)c1c(O)c3c(c(O)c1C2=O)C[C@@](O)(C(=O)CO)C[C@@H]3O[C@H]1C[C@H](N)[C@H](O)[C@H](C)O1 [DOXORUBICIN HYDROCHLORIDE] | 4.06 |  |  |

Second part, led by results:

| IC50 (MDA-MB-231) [µM] | IC50 (MCF7) [µM] | SMILES | IC50 [1] [µM] |
| --- | --- | --- | --- |
| 32.9 | 5.9 | O=C1C=CC2(C=C1)OC(=O)C(c1cc3ccccc3s1)=C2c1ccccc1 | 10.8 |
| 38.6 | 6.32 | O=C1C=CC2(C=C1)OC(=O)C(c1ccc(F)cc1)=C2c1ccccc1 | 11.1 |
| 21.2 | 5.8 | O=C1C=CC2(C=C1)OC(=O)C(c1cc3ccccc3o1)=C2c1ccccc1 | 66.5 |
| 61 | 6 | O=C1C=CC2(C=C1)OC(=O)C(c1ccc(O)cc1)=C2c1ccccc1 | 16.8 |
| 64 | 5.86 | COc1ccc(C2=C(c3ccccc3)C3(C=CC(=O)C=C3)OC2=O)cc1 | 11.7 |
| 9.73 | 5.79 | COc1cc(C2=C(c3ccccc3)C3(C=CC(=O)C=C3)OC2=O)cc(OC)c1OC | 6.61 |
| 10 | 5.73 | COc1ccc(F)cc1C1=C(c2ccccc2)C2(C=CC(=O)C=C2)OC1=O | 13.5 |
| 9.45 | 5.85 | COc1c(Br)cc(C)cc1C1=C(c2ccccc2)C2(C=CC(=O)C=C2)OC1=O | 14.7 |
| 9.12 | 5.81 | O=C1C=CC2(C=C1)OC(=O)C(c1ccc3c(c1)OCO3)=C2c1ccccc1 | 34.2 |
| 19.8 | 6.23 | O=Cc1ccc(C2=C(c3ccccc3)C3(C=CC(=O)C=C3)OC2=O)s1 | 7.08 |

Source: ChEMBL document CHEMBL3351974, “Development of constrained tamoxifen mimics and their antiproliferative properties against breast cancer cells” (Bioorg Med Chem Lett, 2015)
